In patent US9422240B2, “Partially saturated nitrogen-containing heterocyclic compound” (TAISHO PHARMACEUTICAL CO., LTD, priority 2012, dated 2016):
Counter-ions that a name gives are not always drawn.

Target: human PHD2 (Homo sapiens (Human), UniProt Q9GZT9)
Experiment: Test 2: human PHD2 inhibitory activity, fluorescence polarization assay of HIF-1α peptide proline hydroxylation
Assay type: biochemical
Conditions: human PHD2, fluorescence polarization assay, 20-min incubation at 30° C.
Procedure, shortened: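 A 19-mer HIF-1α peptide served as substrate, with the reaction started by 40 ng/well human PHD2 (cell lysate of NM_022051-transfected cells) and run 20 min at 30° C. before EDTA stop. Hydroxylated product bound anti-HIF-OH antibody, read by fluorescence polarization versus no-compound control.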

Chain of human PHD2 (Q9GZT9 whole entry): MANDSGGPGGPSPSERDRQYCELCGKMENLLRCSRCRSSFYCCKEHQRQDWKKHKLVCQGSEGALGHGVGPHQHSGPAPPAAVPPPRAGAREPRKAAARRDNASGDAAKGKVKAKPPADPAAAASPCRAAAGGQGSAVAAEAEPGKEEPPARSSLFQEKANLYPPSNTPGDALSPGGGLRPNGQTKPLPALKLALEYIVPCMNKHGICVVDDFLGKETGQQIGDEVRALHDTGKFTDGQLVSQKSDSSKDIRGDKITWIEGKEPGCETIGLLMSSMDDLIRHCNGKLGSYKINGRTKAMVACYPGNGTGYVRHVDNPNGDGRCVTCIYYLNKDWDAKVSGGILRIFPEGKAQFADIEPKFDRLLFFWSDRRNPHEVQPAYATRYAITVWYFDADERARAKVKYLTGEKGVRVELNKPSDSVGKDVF

SMILES | IC50 [nM]
CCc1ccc(Oc2ccc(CN3CCC(O)=C(C(=O)NCC(=O)O)C3=O)cn2)cc1 [Ex. 1-376] | 22
CCCc1ccc(Oc2ccc(CN3CCC(O)=C(C(=O)NCC(=O)O)C3=O)cn2)cc1 [Ex. 1-377] | 15
Cc1cc(CN2CCC(O)=C(C(=O)NCC(=O)O)C2=O)cnc1Oc1ccc(Cl)cc1 [Ex. 1-409] | 25
Cc1ccc(Oc2ccc(CN3CCC(O)=C(C(=O)NCC(=O)O)C3=O)cc2)cc1C [Ex. 1-386] | 48
Cc1ccc(Oc2ccc(CN3CCC(O)=C(C(=O)NCC(=O)O)C3=O)cn2)cc1Cl [Ex. 1-366] | 19

Same assay, conditions: read-out: Percent inhibition (% at 1 μM)

SMILES | inhibition at 1 µM [%]
Cc1ccc(-c2ccc(CN3CCC(O)=C(C(=O)NCC(=O)O)C3=O)cc2)cn1 [Ex. 2-4, N-({4-Hydroxy-1-[4-(6-methyl-3-pyridinyl)benzyl]-2-oxo-1,2,5,6-tetrahydro-3-pyridinyl}carbonyl)glycine sodium salt] | 88

Same assay, conditions: test compound's concentration 1 μM; Test 2, fluorescence polarization assay; read-out: Percent inhibition (% at 1 μM)

SMILES | inhibition at 1 µM [%]
O=C(O)CNC(=O)C1=C(O)C2(CCC2)CN(Cc2ccc(OC3CC3)cc2)C1=O [Ex. 1-363] | 77
O=C(O)CNC(=O)C1=C(O)CCN(CC2CCC(OCc3ccc(Cl)cc3)CC2)C1=O (centres unmarked) [Ex. 1-427] | 95
CCc1ccc(O[C@H]2CC[C@H](CN3CCC(O)=C(C(=O)NCC(=O)O)C3=O)CC2)nc1 [Ex. 1-449] | 99
O=C(O)CNC(=O)C1=C(O)CCN(C[C@H]2CC[C@H](Oc3ccc(Cl)cn3)CC2)C1=O [Ex. 1-432] | 93
CC1(C)CC(O)=C(C(=O)NCC(=O)O)C(=O)N1CC(=O)NCc1ccc(C(F)(F)F)cc1 [Ex. 10-2] | 6
CCc1ccc(O[C@H]2CC[C@H](CN3CCC(O)=C(C(=O)NCC(=O)O)C3=O)CC2)cc1 [Ex. 1-431] | 99
CC(C)[C@@H]1CC(O)=C(C(=O)NCC(=O)O)C(=O)N1Cc1ccc(OCC2CC2)cc1 [Ex. 6-28] | 42
COc1ccc(CN2CCC(O)=C(C(=O)N[C@@H](C)C(=O)O)C2=O)cc1 [Ex. 9-4] | 42
NC(=O)[C@H]1CC(O)=C(C(=O)NCC(=O)O)C(=O)N1Cc1ccc(OCC2CC2)cc1 [Ex. 6-15] | 55
CC1(C)CC(O)=C(C(=O)NCC(=O)O)C(=O)N1Cc1ccc(OCC(N)=O)cc1 [Ex. 6-25] | 49
O=C(O)CNC(=O)C1=C(O)C2(CCCCC2)N(CC2CCC(c3ccccc3)CC2)C1=O (centres unmarked) [Ex. 1-332] | 73
O=C(O)CNC(=O)C1=C(O)C[C@H](CO)N(Cc2ccc(OCC3CC3)cc2)C1=O [Ex. 6-30] | 45
O=C(O)CNC(=O)C1=C(O)CC2(CNC(=O)C2)N(Cc2ccc(-c3ccccc3)cc2)C1=O (centres unmarked) [Ex. 1-314] | 86
O=C(O)CNC(=O)C1=C(O)C[C@@H](CO)N(Cc2ccc(OCC3CC3)cc2)C1=O [Ex. 6-31] | 44
O=C(O)CNC(=O)C1=C(O)CCN(C[C@@H]2CC[C@@H](c3ccccc3)C2)C1=O [Ex. 1-395] | 90
O=C(O)CNC(=O)C1=C(O)CCN(C[C@H]2CC[C@H](OCCc3ccccc3)CC2)C1=O [Ex. 1-447] | 98

SMILES | inhibition at 1 µM [%]
CC1(C)CC(O)=C(C(=O)NCC(=O)O)C(=O)N1CC1CCN(Cc2ccccc2)CC1 [Ex. 6-26] | 16
CC1C(O)=C(C(=O)NCC(=O)O)C(=O)N1Cc1ccc(Oc2ccc(C(F)(F)F)cn2)cc1 (centres unmarked) [Ex. 6-5] | 97
O=C(O)CNC(=O)C1=C(O)CCN(C[C@H]2CC[C@H](Oc3ccc(C(F)(F)F)cc3)CC2)C1=O [Ex. 1-403] | 102
O=C(O)CNC(=O)C1=C(O)C(c2ccccc2)N(Cc2ccc(-c3ccccc3)cc2)C1=O (centres unmarked) [Ex. 1-326] | 71
O=C(O)CNC(=O)C1=C(O)CCN(C[C@H]2C[C@H](Oc3cccc(Cl)c3)C2)C1=O [Ex. 1-460] | 92
COc1ccc(-c2ccc(CN3CC4(CCC4)C(O)=C(C(=O)NCC(=O)O)C3=O)cc2)cn1 [Ex. 1-361] | 93
O=C(O)CNC(=O)C1=C(O)CCN(C[C@H]2CC[C@H](OCc3ccc(F)cc3)CC2)C1=O [Ex. 1-438] | 90
O=C(O)CNC(=O)C1=C(O)CCN(C[C@H]2CC[C@H](Oc3ccc(C4CC4)cc3)CC2)C1=O [Ex. 1-442] | 98
O=C(O)CNC(=O)C1=C(O)C2(CCC2)N(Cc2ccc(-c3ccccc3)cc2)C1=O [Ex. 6-3] | 96
CN1CCC(O)=C(C(=O)NCC(=O)O)C1=O [Ex. 1-309] | 58
O=C(O)CNC(=O)C1=C(O)CC2(CCN(C(=O)c3ccccc3)CC2)N(Cc2ccc(-c3ccccc3)cc2)C1=O [Ex. 7-1, N-{[9-Benzoyl-1-(4-biphenylylmethyl)-4-hydroxy-2-oxo-1,9-diazaspiro[5.5]undec-3-en-3-yl]carbonyl}glycine] | 97
O=C(O)CNC(=O)C1=C(O)C2(CCCCC2)N(Cc2ccc(-c3ccccc3)cc2)C1=O [Ex. 1-325] | 90
O=C(O)CNC(=O)C1=C(O)CC2(CCCCC2)CN(Cc2ccc(-c3ccccc3)cc2)C1=O [Ex. 1-312] | 86
CS(=O)(=O)c1ccc(CN2C(=O)C(C(=O)NCC(=O)O)=C(O)CC23CCCCC3)cc1 [Ex. 1-328] | 63
O=C(O)CNC(=O)C1=C(O)CC2(CCNCC2)N(Cc2ccc(-c3ccccc3)cc2)C1=O [Ex. 1-311] | 83

Further lines, results first:

inhibition at 1 µM [%] | SMILES
87 | O=C(O)CNC(=O)C1=C(O)CCN(Cc2ccc(-c3cncnc3)cc2)C1=O [Ex. 1-316]
96 | O=C(O)CNC(=O)C1=C(O)CCN(Cc2ccc(COc3ccc(C(F)(F)F)nc3)cc2)C1=O [Ex. 1-423]
76 | O=C(O)CNC(=O)C1=C(O)CCN(Cc2ccc(C(=O)NCc3ccccn3)cc2)C1=O [Ex. 1-348]
94 | O=C(O)CNC(=O)C1=C(O)CCN(Cc2ccc(-c3ccc(S(=O)(=O)NCCO)cc3)cc2)C1=O [Ex. 2-57]
100 | CCc1ccc(Oc2ccc(CN3CCC(O)=C(C(=O)NCC(=O)O)C3=O)cn2)cc1 [Ex. 1-376]
75 | CC(C)(CN1CCC(O)=C(C(=O)NCC(=O)O)C1=O)c1ccc(Cl)cc1 [Ex. 1-413]
66 | Cn1cc(CN2CCC(O)=C(C(=O)NCC(=O)O)C2=O)cn1 [Ex. 1-337]
77 | CCCNC(=O)c1ccc(CN2CCC(O)=C(C(=O)NCC(=O)O)C2=O)cc1 [Ex. 1-322]
97 | Nc1ccc(-c2ccc(CN3CCC(O)=C(C(=O)NCC(=O)O)C3=O)cc2)cn1 [Ex. 2-59]
98 | COc1cnccc1-c1ccc(CN2CCC(O)=C(C(=O)NCC(=O)O)C2=O)cc1 [Ex. 2-2, N-({4-Hydroxy-1-[4-(3-methoxy-4-pyridinyl)benzyl]-2-oxo-1,2,5,6-tetrahydro-3-pyridinyl}carbonyl)glycine sodium salt]
91 | Cc1ccc(COc2ccc(CN3CCC(O)=C(C(=O)NCC(=O)O)C3=O)cc2)cn1 [Ex. 1-398]
100 | Cc1ccc(-c2ccc(CN3CCC(O)=C(C(=O)NCC(=O)O)C3=O)cc2)s1 [Ex. 2-47]
83 | O=C(O)CNC(=O)C1=C(O)CCN(Cc2ccc(OCCC(F)(F)F)cc2)C1=O [Ex. 1-382]
82 | O=C(O)CNC(=O)C1=C(O)CCN(Cc2ccc(-c3cccnc3)cn2)C1=O [Ex. 1-336]
96 | O=C(O)CNC(=O)C1=C(O)CCN(Cc2ccc(-c3ccc(C(F)(F)F)cc3)cn2)C1=O [Ex. 2-40]
88 | COc1ccc(-c2ccc(CN3CCC(O)=C(C(=O)NCC(=O)O)C3=O)cc2)nc1 [Ex. 1-426]
96 | CCCc1ccc(Oc2ccc(CN3CCC(O)=C(C(=O)NCC(=O)O)C3=O)cn2)cc1 [Ex. 1-377]
96 | O=C(O)CNC(=O)C1=C(O)CN(Cc2ccc(-c3ccccc3)cc2)C1=O [Ex. 1-318]
91 | O=C(O)CNC(=O)C1=C(O)CCN(Cc2ccc(-c3ccc(F)cc3)nc2)C1=O [Ex. 2-37]

inhibition at 1 µM [%] | SMILES
98 | Cc1cc(CN2CCC(O)=C(C(=O)NCC(=O)O)C2=O)cnc1Oc1ccc(Cl)cc1 [Ex. 1-409]
81 | CS(=O)(=O)c1ccc(CN2CCC(O)=C(C(=O)NCC(=O)O)C2=O)cc1 [Ex. 1-327]
57 | O=C(O)CNC(=O)C1=C(O)CCN(Cc2cncnc2)C1=O [Ex. 1-320]
66 | Cc1csc(CN2CCC(O)=C(C(=O)NCC(=O)O)C2=O)n1 [Ex. 1-341]
87 | COc1ccncc1-c1ccc(CN2CCC(O)=C(C(=O)NCC(=O)O)C2=O)cc1 [Ex. 2-54]
96 | O=C(O)CNC(=O)C1=C(O)CCN(Cc2ccc(-c3ccc(C4CC4)nc3)cc2)C1=O [Ex. 1-414]
81 | O=C(O)CNC(=O)C1=C(O)CCN(Cc2ccc(C(=O)NCC(=O)O)cc2)C1=O [Ex. 1-351]
92 | COc1ccc(-c2ccc(CN3CCC(O)=C(C(=O)NCC(=O)O)C3=O)nc2)cc1 [Ex. 2-38]
90 | Cc1ncccc1COc1ccc(CN2CCC(O)=C(C(=O)NCC(=O)O)C2=O)cc1 [Ex. 1-401]
92 | Cc1ccc(Oc2ccc(CN3CCC(O)=C(C(=O)NCC(=O)O)C3=O)cc2)cc1C [Ex. 1-386]
99 | COc1cccc(-c2ccc(CN3CCC(O)=C(C(=O)NCC(=O)O)C3=O)cc2)n1 [Ex. 1-421]
80 | O=C(O)CNC(=O)C1=C(O)CCN(Cc2ccc(OCC(=O)O)cc2)C1=O [Ex. 1-346]
103 | Cc1ccc(Oc2ccc(CN3CCC(O)=C(C(=O)NCC(=O)O)C3=O)cn2)cc1Cl [Ex. 1-366]
84 | CC1(COc2ccc(CN3CCC(O)=C(C(=O)NCC(=O)O)C3=O)cc2)CC1 [Ex. 1-370]
72 | O=C(O)CNC(=O)C1=C(O)CCN(Cc2ccc(O)cc2)C1=O [Ex. 4-3, N-{[4-Hydroxy-1-(4-hydroxybenzyl)-2-oxo-1,2,5,6-tetrahydro-3-pyridinyl]carbonyl}glycine]
92 | O=C(O)CNC(=O)C1=C(O)CCN(Cc2ccc(OCc3ccccc3)nc2)C1=O [Ex. 1-380]
99 | Cn1nc2ccccc2c1COc1ccc(CN2CCC(O)=C(C(=O)NCC(=O)O)C2=O)cc1 [Ex. 1-463]
97 | NS(=O)(=O)c1ccc(-c2ccc(CN3CCC(O)=C(C(=O)NCC(=O)O)C3=O)cc2)cc1 [Ex. 2-55, N-({4-Hydroxy-2-oxo-1-[(4′-sulfamoyl-4-biphenylyl)methyl]-1,2,5,6-tetrahydro-3-pyridinyl}carbonyl)glycine]
